Experimental findings from patent publication US20140220069A1, “ACTIVE INGREDIENT DERIVED FROM TORULASPORA DELBRUECKII AND COSMETIC USE FOR IMPROVING AND/OR REPAIRING THE BARRIER FUNCTION OF THE SKIN” (SOCIETE INDUSTRIELLE LIMOUSINE D'APPLICATION BIOLOGIQUE, priority 2011, published 2014) are described below.

Assay [1] relates to loricrin. The assay is described as follows: Synthesis of loricrin by Western Blot on normal human keratinocytes in a single layer. To be noted: for effect on the synthesis of human keratinocyte loricrin in a single layer: human keratinocytes in a single layer. It counts as cell-based. The protocol: The test is done on normal human keratinocytes, according to the operating procedure described in Item A.II of the part on the evaluation of the cosmetic effectiveness.
It was accomplished by Western Blot on normal human keratinocytes that are isolated from foreskins, according to the operating procedure described below.
On D0, the human keratinocytes are inoculated and then incubated at 37° C.
The cells are then incubated at 37° C.
On D7, the cellular extracts are recovered, and the Western Blot metering is carried out.

Assay [2] has as its system loricrin. The assay is described as follows: Synthesis of loricrin on reconstructed epidermis (immunohistological marking, image analysis). To be noted: for Synthesis of Loricrin: D18, untreated control 100%; for synthesis of loricrin relative to the untreated control: mecamylamine 1,000 μM, nicotine 500 μM. It counts as cell-based, human. The protocol: (§1) The procedure used to validate the agonist and the antagonist of the nAChRs is illustrated below for the synthesis of loricrin on reconstructed epidermis. It also applies to the synthesis of E-cadherin on reconstructed epidermis. The inserts comprising the epidermis under construction are placed in a culture medium containing: • 1,000 μM of mecamylamine (reversible antagonist of the nACHRs) or • 500 μM of nicotine (reversible agonist of the nACHRs).
On D18, the inserts are recovered, fixed, dehydrated, and incorporated into paraffin.
Cuts are made, and then an immunohistological marking of the loricrin is done.
Visualization is then done on a microscope coupled to an image analysis system. The intensity of the fluorescence (green color) is proportional to the synthesis of loricrin.
(§2) On D0, the human keratinocytes are cultivated in a culture medium and then inoculated on an insert.
(§3) On D13 and/or D18, the inserts are recovered, fixed, dehydrated, and incorporated into paraffin.
(§4) Next, cuts are made, and then an immunohistological marking of the loricrin or the E-cadherin is done.
(§5) The display is then produced on a microscope coupled to an image analysis system. The intensity of the fluorescence (green color) is proportional to the synthesis of loricrin or cadherin.

The test system of a further assay is E-cadherin. The assay is described as follows: Synthesis of E-cadherin on reconstructed epidermis (immunohistological marking, image analysis). It counts as cell-based, human. The protocol:
as §1, §2, §3, §4, §5

In the case of `CN1CCCC1c1cccnc1` (stereo not shown) [Nicotine, nicotine], in the assay on loricrin [1], the “Ratio of Loricrin/Control (%)” value is listed as “+51%” and the “effect on the synthesis of human keratinocyte loricrin in a single layer” value is “stimulating effect”. Also, the “Synthesis of Loricrin” value in the assay on loricrin [2] (500 μM) is reported as 113%. Moreover, in the assay with loricrin [2], the “synthesis of loricrin relative to the untreated control” value is on record as “increased”. In addition, the “effect on the synthesis of E-cadherin on reconstructed epidermis” value in the assay with E-cadherin was “stimulating effect”.
Regarding `CNC1(C)C2CCC(C2)C1(C)C` (stereo not shown) [Mecamylamine, mecamylamine], the “Change in loricrin synthesis versus control” value in the assay on loricrin [1] (350 μM, normal human keratinocytes, Western Blot on D7) is −57%. Moreover, the “effect on the synthesis of human keratinocyte loricrin in a single layer” value with loricrin [1] was “inhibiting effect”. The “Synthesis of Loricrin” value in the assay with loricrin [2] (1,000 μM) was found to be 53%. Besides, in the assay on loricrin [2], the “synthesis of loricrin relative to the untreated control” value is “reduced”. Further, in the assay on E-cadherin, the “effect on the synthesis of E-cadherin on reconstructed epidermis” value is reported as “inhibiting effect”.
